Laboratory results from patent US20090133153A1, “Polypeptide participating in pyridoxine biosynthesis, polynucleotide encoding the polypetide and those uses” (Genomine, Inc, priority 2004, published 2009).

Tests used:
[1] = test system: T2 Arabidopsis thaliana transformant (anti-sense AtPDX4); assay: Pyridoxine auxotrophy test: T2 seeds of anti-sense AtPDX4 transformant on MS medium with pyridoxine; format: in vivo; conditions: 2.5 mg/L pyridoxine-HCl; for seeds germinated to grow: MS medium with 12 mg/L PPT
Description: Arabidopsis thaliana was cultivated in a soil-filled pot or cultivated in a petri dish by using MS medium (Murashige and Skoog salts, Sigma, U.S.A.) containing 2% sucrose (pH 5.7) and 0.8% agar. In this study, vitamin B6 group (including pyridoxine) was excluded from the vitamin mixture used in the MS medium. The culture pot was incubated at 22° C. in a growth chamber and controlled by 16/8 hours of light and dark cycle. Meanwhile, in order to investigate whether the plant transformant becomes pyridoxine auxotroph mutant or not after transformed with anti-sense construct against AtPDX4 gene, T2 seed of Arabidopsis thaliana transformant was collected from T1 transformant and cultivated to estimate the reaction by adding pyridoxine. Above all, MS medium containing 12 mg/L PPT (phosphinothricine, Duchefa, Netherlands) was prepared and T2 seeds were treated at a low temperature (4° C.) for 3 days. 120 of T2 seeds were cultivated respectively on 2 (total 4) petri dishes of MS media (30 seeds per petri dish) with or without 2.5 mg/L of pyridoxine-HCl (Sigma, USA), so as to select T2 Arabidopsis thaliana transformant.

[2] = test system: T2 Arabidopsis thaliana transformant (anti-sense AtPDX4); assay: Phenotype recovery of T2 anti-sense AtPDX4 transformant by vitamin B6's; format: in vivo; conditions: 0.5 mg/L, 7 days
Description: Arabidopsis thaliana was cultivated in a soil-filled pot or cultivated in a petri dish by using MS medium (Murashige and Skoog salts, Sigma, U.S.A.) containing 2% sucrose (pH 5.7) and 0.8% agar. In this study, vitamin B6 group (including pyridoxine) was excluded from the vitamin mixture used in the MS medium. The culture pot was incubated at 22° C. in a growth chamber and controlled by 16/8 hours of light and dark cycle.
Above all, in order to select T2 Arabidopsis transformant, MS medium containing 12 mg/L PPT (phosphinothricine, Duchefa, Netherlands) was prepared and T2 seeds were treated at a low temperature (4° C.) for 3 days. 120 of T2 seeds were cultivated on petri dishes containing MS media with or without 0.5 mg/L of pyridoxine-HCl (Sigma, USA), pyridoxamine-2HCl (Sigma, USA), pyridoxal-HCl (Sigma, USA) or pyridoxal-5-phosphate (Sigma, USA).

With Cc1ncc(CO)c(CO)c1O [pyridoxine, 2-methyl-3-hydroxy-4,5-di(hydroxymethyl)pyridine] the “phenotype compared with wild type Arabidopsis thaliana” value ([1]; 7 days) was “not to change in the phenotype remarkably”, the “phenotype compared with wild type Arabidopsis” value ([1]; 19 days) was “not to change in the phenotype such as growth retardation” and the “seeds germinated to grow” value ([1]; 7 days) was 22 seeds. The “seeds germinated to grow” value ([1]; 19 days) was 24 seeds, the “phenotype of plant transformant” value [2] was “not to change in the phenotype remarkably” and the “seeds germinated to grow” value ([2]; MS medium with 12 mg/L PPT) was 26 seeds.
